Molecules are shown by their SMILES.

The first assay deals with T1, K103NNY181C mutant reverse transcriptase (Human immunodeficiency virus type 1 group M subtype B, UniProt P04585, K690N/Y768C).
T1 construct: mutations that occur in the reverse transcriptase segment of the pol gene
Kind of assay: Reverse transcriptase enzymatic assay (PicoGreen), K103N/Y181C mutant RT. The class given is biochemical, HIV-1. The conditions noted are these: IC50 mut (nM), mutant (K103N/Y181C) reverse transcriptase, enzymatic assay of Example 24. As for the experimental part:
The enzymatic assay employed is described as follows: The reverse transcriptase (RT) enzyme assay has been adapted to a 96-well microtiter plate format and uses PicoGreen™ as a fluorescent intercalator. More explicitly, the HIV-1 RT enzyme was thawed and appropriately diluted into Tris/HCl 50 mM pH 7.8 containing NaCl 60 mM, MgCl2.6H2O 2 mM, DTT 6 mM, GSH 2 mM and 0.02% w/v Chaps to give ≈10 nM enzyme. To 10 μL of this enzyme solution was added 10 μL of inhibitor solution (40 μM to 2.032 nM inhibitor in the same assay buffer as above containing 4% v/v DMSO). The plate was pre-incubated for 15 minutes at room temperature before proceeding to the next step. In this pre-incubation step, the highest and lowest inhibitor concentrations were 20 μM and 1.016 nM respectively and the concentration of DMSO was 2% v/v. Then the enzymatic reaction was initiated by addition of 20 μL of substrate solution. The final reaction mixture contained Tris/HCl 50 mM pH 7.8, NaCl 60 mM, MgCl2.6H2O 2 mM, DTT 6 mM, GSH 2 mM, CHAPS 0.02% w/v, DMSO 1% v/v, poly rC 45 nM, dG15 4.5 nM, dGTP 3.6 μM, and 2.5 nM enzyme. In this incubation step, the highest and lowest inhibitor concentrations were 10 μM and 0.508 nM respectively. After addition of the substrate cocktail, the plate was covered with a plastic seal and incubated for 50 minutes at 37° C. in a dry incubator. The reaction was then quenched by addition of 5 μL of EDTA 0.5 M. The plate was shaken for 30 seconds at medium speed and incubated for 5 minutes at room temperature. Then 160 μL of PicoGreen™ 1:400 dilution from commercial stock (diluted in Tris 20 mM pH 7.5 with EDTA 1 mM) was added and the plate was shaken for 30 seconds and incubated for 10 minutes at room temperature. The plate was then analyzed using a POLARstar Galaxy fluorometer (BMG Labtechnologies) with λex and λem of 485 nm and 520 nm respectively. Each well was read for 1.25 second. Each row contained at its extremities a blank and a control well.
A word on the IC50: it is the midpoint of a concentration-inhibition curve. A high value points to weaker potency. `CC(C)(C)c1ccc(-n2nnnc2SCC(=O)Nc2ccc(NC(=O)Cn3cnnn3)cc2Cl)c(Cl)c1` [Compound 7040] showed a concentration for half-maximal inhibition (IC50) of 42.5 nM.
On the same count and under the same terms, in the case of `CC(C)(C)c1ccc(-n2nnnc2SCC(=O)Nc2ccc(NC(=O)c3ccc(C(=O)O)cc3)cc2Cl)c(Cl)c1` [Compound 7029] it was 88 nM; in that of `CC(C)(C)c1ccc(-n2nnnc2SCC(=O)Nc2ccc(NC(=O)Cc3ccc([N+](=O)[O-])cc3)cc2Cl)c(Cl)c1` [Compound 7025], 154 nM; in that of `CC(C)(C)c1ccc(-n2nnnc2SCC(=O)Nc2ccc(NC(=O)Nc3ccc(C(=O)O)cc3)cc2Cl)c(Cl)c1` [Compound 7009], 43 nM.

Still in this assay, the particulars now being: IC50 mut, K103N/Y181C mutant reverse transcriptase, enzymatic assay of Example 24.
The compound `CC(C)(C#Cc1ccc(NC(=O)CSc2nnnn2-c2ccc(C(C)(C)C)cc2Cl)c(Cl)c1)COC(N)=O` [Compound 4033] returned an IC50 of 36 nM.
`CC(C)(C#Cc1ccc(NC(=O)CSc2nnnn2-c2cc(C3CC3)cc(C(F)(F)F)c2Cl)c(Cl)c1F)NC(=O)c1ccc[n+]([O-])c1` [Compound 4248]: half-maximal inhibition (IC50) was put at 30.5 nM.
On the same count and under the same terms, with `CC(C)(C#Cc1ccc(NC(=O)CSc2nnnn2-c2ccc(C3CC3)cc2Cl)c(Cl)c1)NC(=O)CN1CCCC1` [Compound 4123] the figure was 38 nM; with `CC(C)(C#Cc1ccc(NC(=O)CSc2nnnn2-c2ccc(C3CC3)cc2Cl)c(Cl)c1)OCCN1CCCC1=O` [Compound 4182], 58.5 nM; with `Cc1cc(-n2nnnc2SCC(=O)Nc2ccc(C#CC(C)(C)O)cc2Cl)c(Cl)c(C(F)(F)F)c1` [Compound 4031], 264 nM.
On the same count and under the same terms, in the case of `CC(C)(C#Cc1ccc(NC(=O)CSc2nnnn2-c2cc(C3CC3)ccc2Cl)c(Cl)c1)NC(=O)CN1CCNCC1` [Compound 4195] it was 22.5 nM.
Same read-out and setting: in the case of `CN1CCN(CC#Cc2ccc(NC(=O)CSc3nnnn3-c3ccc(C(C)(C)C)cc3Cl)c(Cl)c2)CC1` [Compound 4015] it was 40 nM; in that of `CC(C)(O)C#Cc1ccc(NC(=O)CSc2nnnn2-c2c(F)ccc(C(F)(F)F)c2Cl)c(Cl)c1` [Compound 4022], 185 nM; in that of `CN(C)CCCNC(=O)C(C)(C)C#Cc1ccc(NC(=O)CSc2nnnn2-c2ccc(CC3CC3)cc2Cl)c(Cl)c1` [Compound 4245], 459 nM.
Consider `CC(C)(C#Cc1ccc(NC(=O)CSc2nnnn2-c2ccc(C3CC3)cc2Cl)c(Cl)c1F)OCCOc1ccncc1` [Compound 4165], for which the concentration for half-maximal inhibition (IC50) came to 67.5 nM.
On the same count and under the same terms, in the case of `CC(C)(C#Cc1ccc(NC(=O)CSc2nnnn2-c2ccc(C3CC3)cc2Cl)c(Cl)c1)NC(=O)c1cc[n+]([O-])cc1` [Compound 4086] it was 12 nM.
Still for that read-out and setting: with `CC(C)(C#Cc1ccc(NC(=O)CSc2nnnn2-c2cc(Cl)c(C3CC3)cc2Cl)c(Cl)c1)C(=O)O` [Compound 4206] the figure was 152 nM; with `CC(C)(C#Cc1ccc(NC(=O)CSc2nnnn2-c2ccc(C(C)(C)C)cc2Cl)c(Cl)c1F)C(=O)O` [Compound 4122], 15.5 nM.
Still for that read-out and setting: with `CC(C)(C#Cc1ccc(NC(=O)CSc2nnnn2-c2cc(C(C)(C)C)cc(Br)c2Cl)c(Cl)c1)C(=O)O` [Compound 4219] the figure was 97 nM; with `CN(O)C(=O)COC(C)(C)C#Cc1ccc(NC(=O)CSc2nnnn2-c2ccc(C(C)(C)C)cc2Cl)c(Cl)c1` [Compound 4050], 66 nM.
With `CC(C)(C#Cc1ccc(NC(=O)CSc2nnnn2-c2cc(C(F)(F)F)ccc2Cl)c(Cl)c1F)OCCOc1ccncc1` [Compound 4166], half-maximal inhibition (IC50) was put at 126 nM.
On the same count and under the same terms, with `CC(C)(C#Cc1ccc(NC(=O)CSc2nnnn2-c2ccc(C3CC3)cc2Cl)c(Cl)c1)OCCN1CCCCC1` [Compound 4103] the figure was 218 nM; with `CC(C)(C#Cc1ccc(NC(=O)CSc2nnnn2-c2ccc(C(C)(C)C)cc2Cl)c(Cl)c1)OCC(=O)Nc1ccc(/C=C/C(=O)O)cc1` [Compound 4026], 63 nM.
On the same count and under the same terms, with `CC(C)(C#Cc1ccc(NC(=O)CSc2nnnn2-c2cc(Cl)ccc2Cl)c(Cl)c1)C(=O)O` [Compound 4162] the figure was 99 nM; with `CC(C)(C#Cc1ccc(NC(=O)CSc2nnnn2-c2ccc(C(C)(C)C)cc2Cl)c(Cl)c1)OCC(=O)Nc1cnccn1` [Compound 4040], 58 nM; with `CC(C)(C#Cc1ccc(NC(=O)CSc2nnnn2-c2ccc(C3CC3)cc2Cl)c(Cl)c1)NC(=O)C1(C(=O)O)CC1` [Compound 4233], 9.35 nM.
The same measure, in the same setting: with `CC(C)(C#Cc1ccc(NC(=O)CSc2nnnn2-c2ccc(C3CC3)cc2Cl)c(Cl)c1)C(=O)NCCN1CCCC1` [Compound 4143] the figure was 65 nM; with `CC(C)(C#Cc1ccc(NC(=O)CSc2nnnn2-c2cc(C(F)(F)F)cc(Cl)c2Cl)c(Cl)c1)NC(=O)c1cc[n+]([O-])cc1` [Compound 4210], 15.5 nM; with `CC(C)(C#Cc1ccc(NC(=O)CSc2nnnn2-c2ccc(C(C)(C)C)cc2Cl)c(Cl)c1)COC(N)=O` [Compound 4042], 37 nM.

Staying with this assay, now noted: IC50 mut, mutant reverse transcriptase, enzymatic assay of Example 24.
`CNS(=O)(=O)c1ccc(NC(=O)CSc2nnnn2-c2ccc(C(C)(C)C)cc2Cl)c(Cl)c1` [Compound 3021] came in with a 50% inhibitory concentration (IC50) of 63 nM.
Still for that read-out and setting: with `CC(C)(C)c1ccc(-n2nnnc2SCC(=O)Nc2ccc(OCC(=O)NCc3ccc(O)c(O)c3)cc2Cl)c(Cl)c1` [Compound 5019] the figure was 78 nM; with `O=C(CSc1nnnn1-c1ccc(C2CC2)cc1Cl)Nc1ccc(C(=O)NCc2cc[n+]([O-])cc2)cc1Cl` [Compound 6034], 44.5 nM; with `CC(C)(C)c1ccc(-n2nnnc2SCC(=O)Nc2ccc(S(=O)(=O)NCCO)cc2Cl)c(Cl)c1` [Compound 3027], 81 nM.
For `CN1CCN(C(=O)COc2ccc(NC(=O)CSc3nnnn3-c3ccc(C(C)(C)C)cc3Cl)c(Cl)c2)CC1` [Compound 5003], the half-maximal inhibitory concentration (IC50) was 48 nM.
Still for that read-out and setting: with `O=C(O)Cc1ccc(-c2ccc(NC(=O)CSc3nnnn3-c3ccc(C4CC4)cc3Cl)c(Cl)c2)cc1` [Compound 2033] the figure was 15 nM; with `Cc1cc(NC(=O)COc2ccc(NC(=O)CSc3nnnn3-c3ccc(C(C)(C)C)cc3Cl)c(Cl)c2)no1` [Compound 5001], 71 nM; with `CC(C)(C)c1ccc(-n2nnnc2SCC(=O)Nc2ccc(OCC(=O)Nc3ccccc3O)cc2Cl)c(Cl)c1` [Compound 5009], 131 nM.
`Cc1cc(-c2ccc(NC(=O)CSc3nnnn3-c3ccc(C(C)(C)C)cc3Cl)c(Cl)c2)ccc1OCC(=O)O` [Compound 3010] yielded an IC50 of 33 nM.
`Cc1ccc(-c2c(OCC(=O)Nc3ccc(C#CC(C)(C)C(=O)O)cc3Cl)n[nH]c2C)c(Cl)c1` [Compound 1015] showed an IC50 of 48 nM.
On the same count and under the same terms, in the case of `CC(C)(C)c1ccc(-n2nnnc2SCC(=O)Nc2ccc(S(=O)(=O)NCC(=O)O)cc2Cl)c(Cl)c1` [Compound 3032] it was 97.5 nM; in that of `CC(C)(C)c1ccc(-n2nnnc2SCC(=O)Nc2ccc(OCC(=O)Nc3ccc(N4CCOCC4)cc3)cc2Cl)c(Cl)c1` [Compound 5005], 216 nM; in that of `CC(C)(C)c1cc(Cl)c(-n2nnnc2SCC(=O)Nc2ccc(-c3ccc(OCC(=O)O)cc3)cc2Cl)c(Cl)c1` [Compound 2018], 12 nM.
Still for that read-out and setting: in the case of `COC(=O)/C=C/c1ccc(NC(=O)CSc2nnnn2-c2ccc(C)cc2Cl)c(Cl)c1` [Compound 3005] it was 305 nM.
Same read-out and setting: with `CC(C)(C)c1ccc(-n2nnnc2SCC(=O)Nc2ccc(OCC(=O)NC[C@H]3CC[C@H](C(=O)O)CC3)cc2Cl)c(Cl)c1` [Compound 5031] the figure was 118 nM; with `Cc1nnc(SCC(=O)Nc2ccc(C#CC(C)(C)COC(N)=O)cc2Cl)n1-c1ccc(C2CC2)cc1Cl` [Compound 1011], 21 nM; with `CN(C)S(=O)(=O)c1ccc(NC(=O)CSc2nnnn2-c2ccc(C(C)(C)C)cc2Cl)c(Cl)c1` [Compound 3025], 217 nM.
In the case of `O=C(CSc1nnnn1-c1ccc(C2CC2)cc1Cl)Nc1ccc(S(=O)(=O)N2CCC(C(=O)O)CC2)cc1Cl` [Compound 3042], it took 387 nM to reach half-maximal inhibition (IC50). This IC50 is about 1.8-fold higher than that of the compound before.
On the same count and under the same terms, with `CC(C)(C)c1ccc(-n2nnnc2SCC(=O)Nc2ccc(OCC(=O)N3CCC(C(=O)O)CC3)cc2Cl)c(Cl)c1` [Compound 5028] the figure was 39 nM; with `Cc1ccc(-c2c(OCC(=O)Nc3ccc(C#CC(C)(C)O)cc3Cl)n[nH]c2C)c(Cl)c1` [Compound 1016], 48 nM; with `CN(CCc1ccncc1)C(=O)COc1ccc(NC(=O)CSc2nnnn2-c2ccc(C3CC3)cc2Cl)c(Cl)c1` [Compound 5037], 174 nM.
`Cc1nnc(SCC(=O)Nc2ccc(-c3ccc(OCC(=O)O)cc3)cc2Cl)n1-c1ccc(C(C)(C)C)cc1Cl` [Compound 1001] had a 50% inhibitory concentration (IC50) of 25.5 nM.
Still for that read-out and setting: in the case of `Cc1ccc(-n2nnnc2SCC(=O)Nc2ccc(-c3ccc(CC(=O)O)cc3)cc2Cl)c(Cl)c1` [Compound 2004] it was 48 nM.

Source of the values: US7517998B2, “Non nucleoside reverse transcriptase inhibitors” (priority 2004, dated 2009).
